Reference: patent publication US8008487B2, “Substituted thieno[2,3-D]pyrimidines as fungicides” (priority 2004, dated 2011)

Experiments:
Format in all cases: in vivo
[1] = system: Erysiphe cichoracaerum; experiment: Cucumber Powdery Mildew (ERYSCI), whole-plant fungicide test; settings: Erysiphe, foliar, 24 h, 200 ppm on foliage, one-day protectant test, read-out: ERYSCI percent control of disease
[2] = system: Septoria tritici; experiment: Speckled Leaf Blotch of Wheat (SEPTTR), whole-plant fungicide test; settings: Zymoseptoria tritici, foliar, 24 h, 200 ppm on foliage, one-day protectant test, read-out: SEPTTR percent control of disease
[3] = system: Cochliobolus sativus; experiment: Spot Blotch of Wheat (COCHSA), whole-plant fungicide test; settings: Bipolaris sorokiniana, foliar, 24 h, 200 ppm on foliage, one-day protectant test, read-out: COCHSA percent control of disease
Protocol: The activity of the compounds as effective fungicides was determined by applying the compounds to plants and observing control of fungal disease. The compounds were formulated at 200 ppm in 10 vol. percent acetone plus 90 vol. percent Triton X water (deionized water 99.99 wt. percent+0.01 wt. percent Triton X100), giving a “formulated test compound.” In a few cases, compounds were formulated at 100, 75 or 8.3 ppm rather than 200 ppm in 10 vol. percent acetone plus 90 vol. percent Triton X water (deionized water 99.99 wt. percent+0.01 wt. percent Triton X100), giving a ‘formulated test compound’. The compounds were tested for ability to control plant diseases in a 1-day protectant test (1DP) or a 2-day curative test (2DC). Formulated test compounds were applied to plants using a turn table sprayer fitted with two opposing air atomization nozzles which delivered approximately 1500 L/ha of spray volume. Plants were inoculated with spores of the fungus the next day (1DP), then incubated in an environment conducive to disease development. In a few cases, the compounds were tested for ability to control plant disease in a two-day curative test. Plants were inoculated with spores of the fungus two days prior to compound application, and incubated in an environment conducive to disease development both before and after compound application (2DC). For all types of tests, disease severity was evaluated 4 to 28 days later, depending on the speed of disease development.
Each pot contained 3-8 seedlings. These plants were sprayed until wet with the formulated test compound. On the following day, the leaves were inoculated with an aqueous spore suspension of Cochliobolus sativus and the plants were kept in high humidity for one to two days to permit spores to germinate and infect the leaf. The plants were then transferred to a greenhouse until disease developed on untreated control plants.
The following table presents the activity of typical compounds of the present invention when evaluated in these experiments. The effectiveness of the test compounds in controlling disease was determined by assessing the severity of disease on treated plants, then converting the severity to percent control based on the level of disease on untreated, inoculated plants.
TABLE 4: Activity of compounds as fungicides. Data are the level at which the given disease was controlled when the given compound was applied to the foliage of the plant at 200 ppm. In a few cases (noted in the table) the compound was applied to the plant at 100, 75 or 8.3 ppm. The plant was inoculated with the fungus one day after treatment. In a few cases (noted in the table) the plant was inoculated with the fungus two days before treatment.

[4] = system: Colletotricum lagenarium; experiment: Cucumber Anthracnose (COLLLA), whole-plant fungicide test; settings: Cucumis sativus, foliar, 24 h, 200 ppm on foliage, one-day protectant test, read-out: COLLLA percent control of disease
[5] = system: Leptosphaeria nodorum; experiment: Glume Blotch of Wheat (LEPTNO), whole-plant fungicide test; settings: Parastagonospora nodorum, foliar, 24 h, 200 ppm on foliage, one-day protectant test, read-out: LEPTNO percent control of disease
[6] = system: Phytophthora infestans; experiment: whole plant or invertebrate; settings: Phytophthora infestans, in Solanum lycopersicum, foliar, 24 h, read-out: PHYTIN percent control of disease, 200 ppm on foliage, tomato, one-day protectant test
[7] = system: Erysiphe graminis f. sp. tritici; experiment: Powdery Mildew of Wheat (ERYSGT), whole-plant fungicide test; settings: Blumeria graminis, foliar, 24 h, 200 ppm on foliage, one-day protectant test, read-out: ERYSGT percent control of disease
[8] = system: Puccinia recondita tritici; experiment: Leaf Rust of Wheat (PUCCRT), whole-plant fungicide test; settings: Puccinia recondita, foliar, 24 h, 200 ppm on foliage, one-day protectant test, read-out: PUCCRT percent control of disease
[9] = system: Magnaporthe grisea; experiment: whole plant or invertebrate; settings: Pyricularia oryzae, in Oryza sativa, foliar, 24 h, read-out: PYRIOR percent control of disease, 200 ppm on foliage, rice, one-day protectant test

SMILES | pest or weed control at 200 ppm [1] | pest or weed control at 200 ppm [2] | pest or weed control at 200 ppm [3] | pest or weed control at 200 ppm [4] | pest or weed control at 200 ppm [5] | pest or weed control at 200 ppm [6] | pest or weed control at 200 ppm [7] | pest or weed control at 200 ppm [8] | pest or weed control at 200 ppm [9]
CC(Nc1ncnc2scc(Cl)c12)c1cc[nH]c1 (stereo not drawn) [Compound 15] | 0 to 49% | 0 to 49% | 0 to 49% | 0 to 49% | 0 to 49% | 0 to 49% | 0 to 49% | 80 to 100% | 50 to 79%
CC(Nc1ncnc2scc(Cl)c12)c1ccn(C(C)C)c1 (stereo not drawn) [Compound 16] | 0 to 49% | 0 to 49% | 50 to 79% | 0 to 49% | 0 to 49% | 0 to 49% | 0 to 49% | 0 to 49% | 50 to 79%
Clc1csc2ncnc(C3Cc4ccccc4C3)c12 [Compound 17] | 0 to 49% | 0 to 49% | 50 to 79% | 0 to 49% | 0 to 49% | 0 to 49% | 0 to 49% | 0 to 49% | 0 to 49%
CC(COc1ccc(C(F)(F)F)cn1)Nc1ncnc2scc(Cl)c12 (stereo not drawn) [Compound 18, 5-chloro-N-(1-methyl-2-{[5-(trifluoromethyl)pyridin-2-yl]oxy}ethyl)thieno [2,3-d]pyrimidin-4-amine] | 80 to 100% | 80 to 100% | 0 to 49% | 0 to 49% | 80 to 100% | 80 to 100% | 80 to 100% | 80 to 100% | 80 to 100%
CC(Nc1ncnc2scc(Cl)c12)c1ccc(C(F)(F)F)cn1 (stereo not drawn) [Compound 19] | 0 to 49% | 50 to 79% | 80 to 100% | 0 to 49% | 50 to 79% | 0 to 49% | 50 to 79% | 50 to 79% | 80 to 100%
COC(=O)c1ccc(CNc2ncnc3scc(Cl)c23)cc1 [Compound 20] | 0 to 49% | 50 to 79% | 0 to 49% |  | 0 to 49% |  | 0 to 49% | 0 to 49% | 0 to 49%
CC(Nc1ncnc2scc(Cl)c12)c1cnco1 (stereo not drawn) [Compound 21] | 50 to 79% | 50 to 79% | 0 to 49% |  | 0 to 49% |  | 0 to 49% | 80 to 100% | 80 to 100%
CC(Nc1ncnc2scc(Cl)c12)c1nccs1 (stereo not drawn) [Compound 22] | 80 to 100% | 50 to 79% | 0 to 49% |  | 0 to 49% |  | 0 to 49% | 80 to 100% | 80 to 100%
CC(Nc1ncnc2scc(Cl)c12)c1ccc(Cl)nc1 (stereo not drawn) [Compound 28] |  | 80 to 100% | 0 to 49% |  | 80 to 100% |  | 0 to 49% | 80 to 100% | 80 to 100%
